Several values for one entry are separate records, joined by “and”; a condition that tells them apart may be missing. Identical values can stand only once.
Tests used:
[1] = biological target: AChE (Electrophorus electricus, UniProt O42275); conditions: for PI: AChE, IC50 dark / IC50 green light; for IC50: read-out: IC50,D, isolated AChE, 30 min in the dark, read 35 min after DTNB addition
Description: Among all enzymes involved in transmembrane signaling, another important one is AChE. In a modified procedure (for further details, see the Experimental Section), we checked whether the ruthenium complexes were able to inhibit AChE in the dark and after light activation. The colorimetric assay used Ellman’s reagent. […] The conversion of 5,5′-dithiobis(2-nitrobenzoic acid) (DTNB) to yellow 2-nitro-5-thiobenzoate (TNB) initiated by the addition of acetylthiocholine was then detected by UV–vis spectroscopy every 5 min for a total time of […]. […] The solution was further diluted 1:50 in 50 mM Tris buffer, pH = 8 (10 μL in 490 μL), and then placed in 4.5 mL of 50 mM Tris buffer, pH = 8. […] 50 μL of the enzyme and 50 μL of the complex solution were added to a 96-well plate in triplicates. […] Meanwhile, a 10 mM solution of acetylthiocholine iodide and 10 mM DTNB was prepared. After the respective time, in each well, 5 μL of the acetylthiocholine iodide and DTNB mixture was added. The absorbance was read at a microplate Tecan reader at 410 nm every 5 min for in total 40 min.

[2] = test system: SH-SY5Y cells; experiment: Intracellular Ca content by ICP-MS, dark or green light; assay type: cell-based; conditions: for Ca uptake, Dark: kept in the dark
Method: Six hours after compound addition, the cells were irradiated with green light or kept in the dark. Intracellular Ca^2+ levels were then assessed by ICP-MS 24 h after light activation. The NMDA and α-amino-3-hydroxy-5-methyl-4-isoxazole propionic acid (AMPA) receptors being glutamate-gated cation channels allow for an increase of calcium permeability of the neuron membrane; we also used L-glutamic acid (GA, 10 μM), a known NMDA and AMPA activator, as positive control in this assay.
(§1) 1 mL of SH-SY5Y cells were seeded in 12-well plates (Greiner, No. 665180; 500.000 cells per well). […] After an additional 24 h of incubation, the cells were trypsined, collected, and centrifuged. The resulting cell pellet was dissolved in 1 mL of PBS and counted via a BioRad TC20 automated cell counter. Afterward, the solution was centrifuged and washed again with PBS with subsequent centrifuging two more times. The resulting cell pellet was digested in 0.5 mL of HNO3 overnight in a hot oven (90 °C). The solution was diluted with Milli-Q water to 10 mL, and the Ru and Ca content [ppb] was measured via ICP-MS.

[3] = test system: SH-SY5Y cells; experiment: Ru cellular uptake by ICP-MS, dark or green light; assay type: in vitro ADME; conditions: kept in the dark
Method: These surprising results led us to further investigate whether the uptake of the respective compounds plays a pivotal role in the alternation of the proliferation. […] The complex was allowed to incubate for 24 h after irradiation before the ruthenium cellular content was analyzed by ICP-MS. […] We finally decided to incubate the SH-SY5Y cells with the EC50 values obtained from the cytotoxicity experiment using the U-87MG cell, as those procedures would allow one to observe the effect of the prodrug on the healthy neuron-like cells when treated with the phototoxic compound dose. […] Overall, cellular uptake in neuron-like SH-SY5Y cells followed the same trends as those for GBM cells U-87MG in the dark, while uptake was much higher after light activation.
as §1

[4] = cited from earlier work
[5] = test system: U-87MG glioblastoma cells; experiment: Cytotoxicity, SRB end-point assay, dark or green light; conditions: read-out: EC50,D, kept in the dark, 24 h + 48 h incubation, normoxic (21% O2)
[6] = test system: U-87MG cells; experiment: Cell fractioning (FractionPREP kit), Ru content by ICP-MS; assay type: in vitro ADME; conditions: 10 μM, 24 h
Method: Ru content in different compartments was determined via a FractionPREP Cell Fractionation Kit (Abcam, Cambridge, U.K., no 288085). U-87MG cells were seeded in 25 cm^2 OptiMEM medium (1.5 × 10^6 cells) for 24 h. […] Untreated cells served as control. After 24 h of incubation, the cells were collected, counted, and fractioned according to the manufacturer’s procedure. In short, the cells were collected and centrifuged at 700g for 5 min. The cells were then washed with ice-cold PBS (1 mL) followed by 5 min centrifuging at 700g, and the supernatant was removed. The cell pellet was resuspended in 1 mL of ice-cold PBS, transferred into a 1.5 mL Eppendorf tube, and spun for 5 min at 700g, and the supernatant was removed. The pellet was resuspended in 400 μL of Extraction Buffer III/Cytosol Extraction Buffer Mix [containing 2 μL of dithiothreitol (DTT) and 2 μL of protease inhibitor cocktail per mL]. The cells were mixed well by carefully pipetting up and down (ca. 5 times). The sample was incubated on ice for 20 min with gentle tapping three to four times every 5 min. Afterward, the sample was centrifuged at 700g for 10 min. The supernatant was collected (cytosolic fraction) and kept on ice. The resulting pellet was again resuspended in 400 μL of ice-cold Extraction Buffer IV/Membrane Extraction Buffer-A Mix (containing 2 μL of DTT and 2 μL of protease inhibitor cocktail per mL) and pipetted several times, and the sample was vortexed for 10–15 s to mix well. Then, 22 μL of Lysis Buffer/Membrane Extraction Buffer-B was added and vortexed for 5 s. The samples were incubated for 1 min on ice. Afterward, the sample was vortexed again for 5 s and centrifuged for 5 min at 1000g. The supernatant was immediately transferred to a clean, prechilled 1.5 mL tube and kept on ice (membrane fraction). The pellet was again resuspended in 200 μL of ice-cold Extraction Buffer V/Nuclear Extraction Buffer mix (containing 2 μL of DTT and 2 μL of protease inhibitor cocktail per mL), vortexed for 15 s, and kept on ice for 40 min with constant vortex for 15 s every 10 min. The sample was then microcentrifuged at top speed for 10 min. The resulting supernatant was transferred in a clean, prechilled 1.5 mL tube (nuclear fraction) and kept on ice. The remaining cytoskeletal fraction was dissolved in 100 μL of 0.2% SDS containing 10 mM DTT solution. All samples were digested over 65% HNO3 (0.5 mL) in an oven hot oven (90 °C). The solution was diluted with Milli-Q water to 10 mL, and the Ru content [ppb] was measured by ICP-MS.

[7] = test system: SH-SY5Y cells; experiment: Cytotoxicity, SRB end-point assay, dark or green light; assay type: cell-based; conditions: for EC50: kept in the dark, SRB, normoxic (21% O2)

Chain of AChE (O42275 24-633): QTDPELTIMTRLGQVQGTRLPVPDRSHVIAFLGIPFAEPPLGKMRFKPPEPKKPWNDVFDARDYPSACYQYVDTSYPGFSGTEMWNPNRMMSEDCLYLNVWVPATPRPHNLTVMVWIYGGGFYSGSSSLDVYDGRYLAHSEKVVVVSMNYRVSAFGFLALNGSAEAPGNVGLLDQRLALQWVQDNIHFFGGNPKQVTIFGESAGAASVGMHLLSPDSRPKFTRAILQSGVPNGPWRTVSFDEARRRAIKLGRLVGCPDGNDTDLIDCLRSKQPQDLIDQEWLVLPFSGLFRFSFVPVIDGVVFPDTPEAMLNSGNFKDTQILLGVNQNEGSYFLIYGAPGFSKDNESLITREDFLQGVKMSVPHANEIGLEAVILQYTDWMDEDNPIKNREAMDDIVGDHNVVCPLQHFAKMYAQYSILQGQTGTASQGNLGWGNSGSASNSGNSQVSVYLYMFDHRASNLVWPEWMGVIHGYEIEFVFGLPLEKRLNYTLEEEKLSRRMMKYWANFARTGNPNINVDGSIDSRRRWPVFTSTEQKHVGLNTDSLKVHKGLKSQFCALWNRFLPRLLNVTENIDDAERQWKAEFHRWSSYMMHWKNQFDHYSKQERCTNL

Row | SMILES | PI [1] | IC50 [1] [µM] | Ca uptake, Dark ([2]; 20 μM) | Ru uptake, Dark ([3]; 20 μM) | LogP [4] | EC50 [5] | Ru content, Cytosol [6] | Ru content, Membrane [6] | Ru content, Nucleus [6] | concentration required to block cell growth ([7]; in the dark) [µM] | EC50 [7] [µM] | increase of intracellular Ca^2+ content after light irradiation ([2]; 10 μM, green light versus dark) [fold] | Ca uptake, Dark ([2]; 10 μM) | Ru uptake, Dark ([3]; 10 μM)
1 | CSCCO.F[P-](F)(F)(F)(F)F.F[P-](F)(F)(F)(F)F.[Ru+2].c1ccc(-c2cccc(-c3ccccn3)n2)nc1.c1ccc2cc(-c3cc4ccccc4cn3)ncc2c1 [[2](PF6)2] | >1.5 | > 15 | 279.12 ± 56 ng Ca/mio. cells and 279 ng Ca/mio. cells | 1.02 ± 0.63 ng Ru/mio. cells and 1.0 ng Ru/mio. cells | 3.08 | 19 µM and 19.4 µM | 0.18 ng Ru/mio. cells and 0.18 ± 0.06 ng Ru/mio. cells | 0.83 ng Ru/mio. cells and 0.83± 0.57 ng Ru/mio. cells | 0.03 ± 0.03 ng Ru/mio. cells | > 40 | > 100 | – | – | –
2 | CSCCO.F[P-](F)(F)(F)(F)F.F[P-](F)(F)(F)(F)F.[Ru+2].c1ccc(-c2cccc(-c3ccccn3)n2)nc1.c1ccc2cc(Nc3cc4ccccc4cn3)ncc2c1 [[3](PF6)2] | 2 | 9.6 | – | – | 2.92 | 37 µM | 0.07 ± 0.05 ng Ru/mio. cells | 0.88 ng Ru/mio. cells and 0.88 ± 0.25 ng Ru/mio. cells | 0.17 ng Ru/mio. cells and 0.17 ± 0.06 ng Ru/mio. cells | – | 34.2 | 3 | 163.37 ± 93 ng Ca/mio. cells and 163 ng Ca/mio. cells | 2.44 ± 0.63 ng Ru/mio. cells and 2.4 ng Ru/mio. cells
